# Data from patent US20080113908A1, “Use of CRF receptor agonists for the treatment or Prophylaxis of diseases, for example Neurodegenerative diseases” (SmithKline Beecham plc, priority 2000, published 2008).
# Assays:
# [1] = tested on: cerebellar granule neurones; test: Assay 3: intracellular cyclic AMP enzyme immunoassay; format: cell-based, rat; details: agonist 0 to 30 nM, 15 min, 0.5 mM IBMX
# Procedure: Assay 3: The production of cAMP by the CRF receptor agonist peptides CRF, urotensin 1, urocortin and sauvagine was measured as follows. This assay can be used analogously for any putative CRF receptor agonists including non-peptide agonists.
# Intracellular cyclic AMP was measured with a cAMP 2-site enzyme immunoassay system (trade mark BIOTRAK, commercially available from Amersham Pharmacia Biotech, PO Box 164, Rainham, Essex RM13 8JZ, United Kingdom, Amersham catalogue number RPN225), based upon the use of a sensitive and highly specific capture antibody for cyclic AMP:
# Cerebellar granule neurones were seeded in polylysine-coated […] plates, 3.5×10^5 cells per 48-well, in Basal medium Eagle's containing 10% fetal calf serum, 25 mM KCl, and antibiotics. At 8-9 days in vitro, granule neurone cultures were shifted to serum-free plating medium (0.4 ml) with 0.5 mM IBMX (to inhibit the breakdown of cyclic AMP) for 15 min (37° C.). Wells then received 0.1 ml of test peptide (5× final concentration). Generally 1 μM is the preferable final concentration for a putative CRF agonist under test, though different (e.g. lower) concentrations can be used as shown for the peptide agonists in FIG. 3. Incubation was continued for 15 min. Test medium was removed and the plate placed on dry ice, and stored at −140° C. Cyclic AMP analysis was performed the following day.
# Cells were then lysed with the reagent provided with the BIOTRAK kit. Intracellular content of cyclic AMP in the lysates was assayed following the manufacturer's instructions. A standard curve was constructed using the cyclic AMP calibration provided, with the quantity of bound cyclic AMP being inversely proportional to the amount of second (chromogenic) antibody bound to the reaction wells. The colour product was read with an ELISA plate reader, and was a function of the amount of cyclic AMP in the unknown sample.
# [2] = tested on: hippocampal neurones; test: Amyloid-β peptide (25-35) toxicity, survival by counting viable neurons (FIGS. 8, 9); format: cell-based; details: Aβ(25-35) 10 μM, CRF 3-100 nM, 3 days
# Procedure: In order to test whether CRF receptor agonists protect neurones from death caused by Aβ, the following experiment was conducted (FIGS. 8 and 9). Hippocampal neurons from embryonic day 18 rat were cultured in serum-free medium (neurobasal/B27) for 9 days. The culture methods are described on page 48 of S. D. Skaper et al., J. Neurochem., 2001, 76, 47-55. Cells were then treated with amyloid-β peptide (fragment 25-35) (Sigma, cat. no. A-4559, sequence Gly-Ser-Asn-Lys-Gly-Ala-Ile-Ile-Gly-Leu-Met) at 10 μM plus the indicated CRF receptor agonist at the indicated concentration, in the same culture medium. […] Cell survival was assessed after 3 days, by fixing the cultures and counting microscopically viable neurons. Values are expressed relative to numbers of surviving neurons in untreated cultures (=100).
# [3] = target: cerebellar granule neurones; format: cell-based, rat; details: 48 h
# Procedure: Cerebellar granule neurones were used in the examples to test neuroprotection by CRF receptor agonists. Cerebellar granule neurones (CGNs) undergo apoptosis during the first few weeks of postnatal life, and in culture require mildly depolarising concentrations of KCl (25 mM) for their survival and maturation (S. R: D'Mello et al., Proc. Natl. Acad. Sci. USA 90, 10989-10993, 1993). The growth signal provided by KCl depends upon activation of the phosphatidylinositol 3-kinase (PI 3-kinase) pathway, and pharmacological inhibition of PI 3-kinase in differentiated granule neurones leads to apoptotic death in the CGNs (T. M. Miller et al., J. Biol. Chem., 272, 9847-9853, 1997). Thus, cultured CGNs represent a suitable model to study mechanisms of programmed cell death, and to identify putative neuroprotective signalling pathways.
# Assay 1: Cerebellar granule neurones prepared from postnatal day 8 Sprague Dawley rat pups were used for experiments on death induced by inhibition of PI 3-kinase. General culture methods are described in S. D. Skaper et al. in Methods in Neurosciences, Vol. 2 (Conn P. M., ed), pp. 17-33. Academic Press, San Diego, 1990. At 8-9 days in vitro (DIV), granule neurone cultures were shifted to phenol red-free Dulbecco's modified Eagle's medium lacking serum, and containing 0.05% bovine serum albumin and 25 mM KCl. Death was induced by addition of the PI 3-kinase inhibitor LY 294002 (75 μM). CRF or CRF agonist peptides (urotensin 1, urocortin, sauvagine) were added at different concentrations (from 0.3nM to 300 nM or 1000 nM) together with LY 294002. Forty-eight hours later neuronal survival was quantified by a colorimetric reaction MTT. Absolute MTT values obtained were normalised for small differences in interexperiment plating densities by scaling to the mean of sham-treated sister cultures (defined as 100%).
# Results are shown in Table 1 below and in graphical form in FIG. 1, which show the percentage mean neuronal survival (and standard deviation), when in the presence of the relevant CRF receptor agonists and LY 294002, as a function of agonist concentration. […] Urotensin 1, urocortin and sauvagine were also neuroprotective albeit with lower potency (<1 μM).
# [4] = tested on: cerebellar granule neurons; test: Delayed addition of CRF after LY 294002, variation of Assay 1 (FIGS. 6A, 6B); format: cell-based, rat
# Procedure: FIGS. 6A and 6B show neuronal survival results, using a variation of Assay 1 in which CRF (10 nM) was added at varying times (shown in hours) following LY 294002 (75 μM) addition. Therefore, granule neurons were cultured with the PI 3-kinase inhibitor LY 294002 (75 μM) in the presence of 10 nM CRF, added together with LY 294002 or at different times (shown in hours) following LY 294002 addition. FIG. 6A is the result from one experiment only. […] It appears from FIG. 6A that the neuroprotective effect is sustained when adding CRF at about 1-4 hrs after LY 294002 addition. From FIG. 6B, it appears that the neuroprotective effect is sustained when adding CRF up to 8 hours after LY 294002 addition.
substance,measurement,setting,value
H-SQEPPISLDLTFHLLREVLEMTKADQLAQQAHNNRKLLDIA-NH2 [CRF],cAMP synthesis induced by agonist (FIG. 3),[1],cAMP production increased with agonist concentration
same,neuroprotective effect against Aβ toxicity (FIG. 8),[2],40-50%
same,EC50,[3],~10 nM
same,neuroprotective effect with delayed CRF addition,"[4]; CRF 10 nM added 10, 24 and 32 hours after LY 294002 75 μM",Only a small neuroprotective effect
same,neuroprotective effect with delayed CRF addition,[4]; CRF 10 nM added 46 hours after LY 294002 75 μM,no neuroprotection
same,time of CRF addition after LY 294002 at which neuroprotective effect is sustained (FIG. 6A),"[4]; CRF 10 nM, LY 294002 75 μM, one experiment",1 to 4 h
same,time of CRF addition after LY 294002 at which neuroprotective effect is sustained (FIG. 6B),"[4]; CRF 10 nM, LY 294002 75 μM, two experiments combined",up to 8 hours
